# Source: paper PMC6934184, “Selective DNA-PKcs inhibition extends the therapeutic index of localized radiotherapy and chemotherapy” (The Journal of Clinical Investigation, 2019)
# Biological target: T1, CAMK2A (CaMKII alpha) (Homo sapiens, UniProt Q9UQM7)
# T1 construct: purchased Thermo Fisher Scientific (Life Technologies) SelectScreen
# Assay: SelectScreen Z'LYTE
# Type: biochemical
# Summary of the method: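 SelectScreen broad panel; activity (Z'LYTE, Adapta) plus binding formats. ATP: Km app for CSF1R Z'LYTE; 10 for CAMK1 Adapta. Readout = % per kinase.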
# T1 sequence (Q9UQM7 whole entry): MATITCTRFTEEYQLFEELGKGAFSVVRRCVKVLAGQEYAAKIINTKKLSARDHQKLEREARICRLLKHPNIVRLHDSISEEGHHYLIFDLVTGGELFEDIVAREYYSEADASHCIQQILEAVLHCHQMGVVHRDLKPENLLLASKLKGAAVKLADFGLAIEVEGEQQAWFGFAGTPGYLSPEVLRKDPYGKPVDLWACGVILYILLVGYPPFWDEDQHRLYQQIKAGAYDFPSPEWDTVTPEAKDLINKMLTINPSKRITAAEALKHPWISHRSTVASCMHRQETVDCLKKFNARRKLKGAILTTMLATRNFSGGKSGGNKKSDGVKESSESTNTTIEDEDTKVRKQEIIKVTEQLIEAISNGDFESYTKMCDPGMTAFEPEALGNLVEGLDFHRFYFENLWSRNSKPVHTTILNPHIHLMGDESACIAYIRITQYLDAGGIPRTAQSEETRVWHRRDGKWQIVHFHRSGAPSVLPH
compound,measurement,value
CN(C(=O)CN1CCOCC1)c1ccc2sc3c(-c4cccc5c(=O)cc(N6CC7CCC(C6)O7)oc45)cccc3c2c1 [NU5455],inhibition at 1 µM,-0.6%
